Results as given in patent US6458820B1, “Method for preventing or the progression of neuronal damage with pramipexole as a neuroprotective agent” (Pharmacia & Upjohn Company, priority 1994, dated 2002).
Entries after “also recorded” stand apart in the source; their conditions may differ. Where a name gives a salt, the structure may show the parent alone.

Legend:
[1] = tested on: rat model of cerebral infarction; settings: administered before the event; cited from earlier work
[2] = tested on: cerebellar granular cells; assay: L-dopa toxicity in primary cultures of cerebellar granular cells, viability by 14C-aminoisobutyric acid uptake; format: cell-based, Sprague Dawley rats; settings: for % of control* (viability, radioactivity): mean of triplicates +/- S.D.
Description: Primary cultures of cerebellar granular cells were prepared from 8-day-old Sprague Dawley rats (Charles River, Portage, Mich.) as described previously (1). […] Glial cell proliferation was prevented by adding cytosine-arabinofuranoside-monophosphate (Sigma, St. […] Experiments were started after cells were 8 days in vitro (8 DIV). Cells were washed with two ml of serum free growth medium. Concentrations of 100X stock solutions of PPX and the (+) enantiomer in serum free growth medium were made. These were delivered to cells by adding 20 ul to cells in growth medium per well. […] Cells were incubated under the above conditions for 24 hrs. […] Cells were solubilized, following a wash, with 0.5% Triton X-100. The solubilized cells were then counted for radioactivity on a scintillation counter. Data was expressed as the mean of triplicates ±S.D. for each point.

dopaminergic receptors = assay: Battery of binding assays, dopaminergic receptors
[3] = tested on: gerbil model of global cerebral ischemia; settings: in vivo; cited from earlier work
[4] = tested on: nigrostriatal dopamine neurons
Description: We examined histologically retrograde degeneration of the dopaminergic nigrostriatal (NS) tract over 28 days in gerbils subjected to a 10-minute period of forebrain ischemia via bilateral carotid occlusion.
The administration of pramipexole was via an initial dose of 1 mg/kg PO 60 minutes after ischemia and again at the end of day 1 followed by twice daily dosing for the next 26 days.

CCN(CC)C(=O)N[C@H]1C=C2c3cccc4[nH]cc(c34)C[C@H]2N(C)C1 [Lisuride]
brain edema [1]: reduced
survival time [1]: prolonged

N[C@@H](Cc1ccc(O)c(O)c1)C(=O)O [L-dopa, reference compound]
Toxicity of L-dopa ([2]; 100 uM L-dopa, 24 hrs): 64.8%

CCCNC1CCc2nc(N)sc2C1.Cl.Cl (single isomer, unassigned; (+)) [(+) enantiomer, (+)-enantiomer of 2-amino-6-n-propylamino-4,5,6,7-tetrahydrobenzothiazole dihydrochloride]
viability measurements versus control cells (in words) ([2]; 10 uM compound, L-dopa treated cells): equal to control cells not exposed to L-dopa
neuroprotection against L-dopa toxicity (in words) ([2]; cerebellar granule cells in culture, dihydrochloride): blocked L-dopa toxicity; also recorded: equally as potent and effective compared to pramipexole
binding activity (in words) (adrenergic receptors): inactive
binding activity (in words) (serotonergic receptors): inactive
binding activity (in words) (dopaminergic receptors): less active

c1cnc(N2CCN(Cc3ccc4c(c3)OCO4)CC2)nc1 [Piribedil]
functional and biochemical parameters [3]: have an effect

CCCN[C@H]1CCc2nc(N)sc2C1 [Pramipexole, (−)-enantiomer of 2-amino-6-n-propylamino-4,5,6,7-tetrahydrobenzothiazole-dihydrochloride]
% of control* (viability, radioactivity) ([2]; 1 nM compound, 100 uM L-dopa, 24 hrs): 30.0 +/− 6.5 % of control
% of control* (viability, radioactivity) ([2]; 10 nM compound, 100 uM L-dopa, 24 hrs): 39.2 +/− 9.4 % of control
% of control* (viability, radioactivity) ([2]; 100 nM compound, 100 uM L-dopa, 24 hrs): 64.8 +/− 4.7 % of control
% of control* (viability, radioactivity) ([2]; 300 nM compound, 100 uM L-dopa, 24 hrs): 76.2 +/− 7.3 % of control
% of control* (viability, radioactivity) ([2]; 1000 nM compound, 100 uM L-dopa, 24 hrs): 65.5 +/− 14.8 % of control
% of control* (viability, radioactivity) ([2]; 3000 nM compound, 100 uM L-dopa, 24 hrs): 84.9 +/− 0.6 % of control
% of control* (viability, radioactivity) ([2]; 10000 nM compound, 100 uM L-dopa, 24 hrs): 90.0 +/− 11.5 % of control
EC50 ([2]; Rattus norvegicus, cerebellar granule cells in culture, L-dopa, read-out: EC50 for blocking L-dopa toxicity): 300 to 1000 nM
attenuation of 28-day post-ischemic loss of NS DA neurons ([4]; Example 1, 1 mg/kg PO BID beginning at 1 hr after insult, p<0.01 vs vehicle-treated): 36%
increase in nigrostriatal dopamine neurons compared to vehicle ([4]; Example 2, twice daily dose of 0.3 mg/kg, threshold effect): 14%
improvement in 28 day post-ischemic dopamine neuronal survival ([4]; Example 2, twice daily dose of 1 mg/kg PO, p<0.0001 vs vehicle-treated): 38%
